Reference: PubChem BioAssay (NCI)
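The concentration for 50% growth inhibition is given as GI50. TGI denotes the concentration required for complete inhibition of growth.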

What was measured:
Test in all cases: growth of human tumour cells (NCI), 384-well format
[1] = system: OVCAR-3 ovarian
[2] = system: HL-60(TB) leukemia
[3] = system: K-562 leukemia
[4] = system: MOLT-4 leukemia
[5] = system: SNB-19 CNS
[6] = system: NCI-H23 lung
[7] = system: SN12C renal
[8] = system: HOP-92 NSCLC
[9] = system: RPMI-8226 leukemia
[10] = system: CCRF-CEM leukemia
[11] = system: PC-3 prostate
[12] = system: SR leukemia
[13] = system: NCI-H460 NSCLC
[14] = system: U251 glioblastoma
[15] = system: EKVX NSCLC
[16] = system: SNB-75 CNS
[17] = system: SW-620 colon
[18] = system: UACC-257 melanoma
[19] = system: DU-145 prostate
[20] = system: HT29 colon
[21] = system: HCC-2998 colon
[22] = system: A549 NSCLC
[23] = system: TK-10 renal
[24] = system: MCF7 breast
[25] = system: NCI-H226 lung
[26] = system: LOX IMVI melanoma
[27] = system: SF-295 CNS
[28] = system: M14 melanoma
[29] = system: CAKI-1 renal
[30] = system: MDA-MB-231 breast
[31] = system: MDA-MB-435 melanoma
[32] = system: NCI-H322M lung
[33] = system: RXF 393 renal
[34] = system: NCI-H522 lung
[35] = system: SF-268 CNS
[36] = system: IGROV1 ovarian
[37] = system: MALME-3M melanoma
[38] = system: HS 578T breast
[39] = system: OVCAR-4 ovarian
[40] = system: T-47D breast
[41] = system: SK-MEL-5 melanoma
[42] = system: HCT-116 colon
[43] = system: 786-0 renal
[44] = system: MDA-MB-468 breast
[45] = system: KM12 colon
[46] = system: SK-MEL-28 melanoma
[47] = system: OVCAR-5 ovarian
[48] = system: ACHN renal
[49] = system: OVCAR-8 ovarian
[50] = system: NCI/ADR-RES ovarian
[51] = system: SF-539 CNS
[52] = system: UO-31 renal
[53] = system: SK-OV-3 ovarian
[54] = system: HCT-15 colon
[55] = system: A498 renal
[56] = system: BT-549 breast
[57] = system: UACC-62 melanoma
[58] = system: HOP-62 NSCLC
[59] = system: COLO 205 colon

Cc1cc(OCCOCCC(F)(F)P(=O)(O)O)ccc1CCc1cnc2c(N)nc3cc(CCC(=O)O)ccc3c2c1
GI50 [1]: > 100 µM
TGI [1]: > 100 µM
GI50 [2]: > 100 µM
TGI [2]: > 100 µM
GI50 [3]: 34.3 µM
TGI [3]: > 100 µM
GI50 [4]: 58.1 µM
TGI [4]: > 100 µM
GI50 [5]: > 100 µM
TGI [5]: > 100 µM
GI50 [6]: 7.12 µM
GI50 [7]: > 100 µM
TGI [7]: > 100 µM
GI50 [8]: > 100 µM
TGI [8]: > 100 µM
GI50 [9]: 99.7 µM
TGI [9]: > 100 µM
GI50 [10]: 37.7 µM
TGI [10]: > 100 µM
GI50 [11]: > 100 µM
TGI [11]: > 100 µM
GI50 [12]: 9.35 µM
TGI [12]: 29.3 µM

Nc1nc2cc(CC[C@H]3C[C@@H](n4ccc5c(N)ncnc54)[C@H](O)[C@@H]3O)ccc2cc1Br
GI50 [1]: 2.88 µM
TGI [1]: 13.8 µM
GI50 [13]: < 0.01 µM
TGI [13]: 1.08 µM
GI50 [14]: 5.85 µM
TGI [14]: 20.3 µM
GI50 [15]: 1 µM
TGI [15]: 16.4 µM
GI50 [2]: 13.8 µM
TGI [2]: 27 µM
GI50 [16]: 1.95 µM
TGI [16]: 16.5 µM
GI50 [17]: 11.8 µM
TGI [17]: 24.1 µM
GI50 [18]: 1.42 µM
TGI [18]: 11.5 µM
GI50 [19]: 13.4 µM
TGI [19]: 26.5 µM
GI50 [20]: 1.85 µM
TGI [20]: 10.4 µM
GI50 [21]: 10.5 µM
TGI [21]: 22.5 µM
GI50 [22]: 0.644 µM
TGI [22]: 15.8 µM
GI50 [23]: 12.6 µM
TGI [23]: 25.4 µM
GI50 [24]: 0.983 µM
TGI [24]: 15.8 µM
GI50 [25]: 1.62 µM
TGI [25]: 15.5 µM
GI50 [26]: 0.579 µM
TGI [26]: 12.2 µM
GI50 [27]: 12.4 µM
TGI [27]: 25.2 µM
GI50 [28]: 10.6 µM
TGI [28]: 22.5 µM
GI50 [29]: 11.5 µM
TGI [29]: 23.9 µM
GI50 [3]: 0.348 µM
TGI [3]: 15.5 µM
GI50 [30]: 3.2 µM
TGI [30]: 20.5 µM
GI50 [31]: 12 µM
TGI [31]: 24.5 µM
GI50 [4]: < 0.01 µM
GI50 [32]: 0.35 µM
TGI [32]: 5.88 µM
GI50 [5]: 11.5 µM
TGI [5]: 23.9 µM
GI50 [33]: 0.246 µM
TGI [33]: 16.3 µM
GI50 [34]: 11 µM
TGI [34]: 23 µM
GI50 [35]: < 0.01 µM
TGI [35]: 1.44 µM
GI50 [36]: 6.55 µM
TGI [36]: 20.8 µM
GI50 [37]: 10.2 µM
TGI [37]: 21.9 µM
GI50 [38]: 11.7 µM
TGI [38]: 24.1 µM
GI50 [39]: 0.4 µM
TGI [39]: 19 µM
GI50 [6]: 0.392 µM
TGI [6]: 18.8 µM
GI50 [40]: < 0.01 µM
TGI [40]: 2.59 µM
GI50 [41]: 0.309 µM
TGI [41]: 2.33 µM
GI50 [42]: 1.66 µM
TGI [42]: 15.5 µM
GI50 [43]: 11.5 µM
TGI [43]: 23.7 µM
GI50 [44]: 0.0253 µM
TGI [44]: 0.433 µM
GI50 [45]: 3.42 µM
TGI [45]: 20.7 µM
GI50 [46]: 18.2 µM
TGI [46]: 32.2 µM
GI50 [47]: 11.4 µM
TGI [47]: 23.8 µM
GI50 [7]: 11.5 µM
TGI [7]: 23.8 µM
GI50 [8]: 12.4 µM
TGI [8]: 24.9 µM
GI50 [9]: 2.14 µM
TGI [9]: 15.4 µM
GI50 [48]: 13.4 µM
TGI [48]: 26.5 µM
GI50 [49]: 1.46 µM
TGI [49]: 14.3 µM
GI50 [50]: 5.73 µM
TGI [50]: 18.6 µM
GI50 [10]: 0.3 µM
TGI [10]: 10.4 µM
GI50 [51]: 10.6 µM
TGI [51]: 22.5 µM
GI50 [52]: 11.9 µM
TGI [52]: 24.4 µM
GI50 [53]: 12 µM
TGI [53]: 24.5 µM
GI50 [11]: 11.4 µM
TGI [11]: 23.7 µM
GI50 [54]: 9.52 µM
TGI [54]: 21.8 µM
GI50 [55]: 2.11 µM
TGI [55]: 11.8 µM
GI50 [56]: 4.06 µM
TGI [56]: 18.3 µM
GI50 [57]: 11.5 µM
TGI [57]: 23.7 µM
GI50 [58]: 0.37 µM
TGI [58]: 12.1 µM
GI50 [59]: 4.18 µM
TGI [59]: 19.5 µM
